From the supplement of paper PMC10307832

Key:
Test in all cases: relative viability (nuclei count vs DMSO), 5 days (fraction); higher = more cells survive
RAF265 + Crizotinib = compound: Cn1c(Nc2ccc(C(F)(F)F)cc2)nc2cc(Oc3ccnc(-c4ncc(C(F)(F)F)[nH]4)c3)ccc21 [RAF265] + C[C@@H](Oc1cc(-c2cnn(C3CCNCC3)c2)cnc1N)c1c(Cl)ccc(F)c1Cl [Crizotinib] (partner 1 µM)
Method in brief: (§1)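 For relative viability, nuclei counts in treated wells were divided by those in vehicle wells. Lung cancer cell lines had been pin-tool dosed in 1536-well plates the day after seeding and cultured for 5 days, then fixed and stained in one step (final 0.05% Triton X-100, 1% formaldehyde, 1 ug/ml Hoechst) and imaged at 4×. Doses were one drug alone or a fixed anchor-drug dose plus five library-drug doses (not always all listed) in √10 steps, and values are duplicate-plate medians.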

RAF265 + OSI-027 = compound: Cn1c(Nc2ccc(C(F)(F)F)cc2)nc2cc(Oc3ccnc(-c4ncc(C(F)(F)F)[nH]4)c3)ccc21 [RAF265] + COc1cccc2cc(-c3nc([C@H]4CC[C@H](C(=O)O)CC4)n4ncnc(N)c34)[nH]c12 [OSI-027] (partner 0.5 µM)
Method in brief: as §1

IPA-3 + Vorinostat = compound: C1=CC=C2C(=C1)C=CC(=C2SSC3=C(C=CC4=CC=CC=C43)O)O [IPA-3] + O=C(CCCCCCC(=O)Nc1ccccc1)NO [Vorinostat] (partner 1 µM)
Method in brief: as §1

Row | Cell Line | relative viability (RAF265 + Crizotinib; first compound 0.01 µM) | relative viability (RAF265 + Crizotinib; first compound 0.03162 µM) | relative viability (RAF265 + Crizotinib; first compound 0.1 µM) | relative viability (RAF265 + Crizotinib; first compound 0.3162 µM) | relative viability (RAF265 + Crizotinib; first compound 1 µM) | relative viability (RAF265 + OSI-027; first compound 0.01 µM) | relative viability (RAF265 + OSI-027; first compound 0.03162 µM) | relative viability (RAF265 + OSI-027; first compound 0.1 µM) | relative viability (RAF265 + OSI-027; first compound 0.3162 µM) | relative viability (RAF265 + OSI-027; first compound 1 µM) | relative viability (IPA-3 + Vorinostat; first compound 0.2 µM) | relative viability (IPA-3 + Vorinostat; first compound 0.6325 µM) | relative viability (IPA-3 + Vorinostat; first compound 2 µM) | relative viability (IPA-3 + Vorinostat; first compound 6.325 µM) | relative viability (IPA-3 + Vorinostat; first compound 20 µM)
1 | COR-L23 | 0.799 | 0.75 | 0.638 | 0.465 | 0.424 | 0.843 | 0.723 | 0.501 | 0.278 | 0.168 | 0.561 | 0.471 | 0.416 | 0.232 | 0.307
2 | ChaGo-K-1 | 1.15 | 1.15 | 1.18 | 1.05 | 0.792 | 0.563 | 0.628 | 0.5 | 0.44 | 0.38 | 0.968 | 0.699 | 0.757 | 0.864 | 0.875
3 | HOP-62 | 0.972 |  | 0.714 | 0.772 | 0.629 | 0.807 | 0.774 | 0.698 | 0.731 | 0.631 | 0.72 | 0.556 | 0.597 | 0.698 | 0.717
4 | NCI-H1915 | 0.875 | 0.81 | 0.727 | 0.496 | 0.234 | 0.674 | 0.492 | 0.339 | 0.217 | 0.176 | 0.581 | 0.497 | 0.505 | 0.492 | 0.533
5 | BEN | 0.955 | 0.911 | 0.961 | 1.07 | 0.821 | 0.261 | 0.29 | 0.312 | 0.311 | 0.293 | 0.594 | 0.59 | 0.586 | 0.686 | 0.568
6 | NCI-H1437 | 0.902 | 0.808 | 0.998 | 1.05 | 0.768 | 0.863 | 0.918 | 0.82 | 0.982 | 0.611 | 0.863 | 0.644 | 0.691 | 0.783 | 0.826
7 | EMC-BAC-2 | 0.747 | 0.685 | 0.617 | 0.501 | 0.234 | 0.375 | 0.342 | 0.219 | 0.232 | 0.134 | 0.436 | 0.556 | 0.504 | 0.428 | 0.491
8 | NCI-H647 | 1.07 | 0.938 | 0.873 | 0.541 | 0.689 | 0.598 | 0.618 | 0.417 | 0.246 | 0.213 | 0.628 | 0.376 | 0.581 | 0.544 | 0.151
9 | LXF-289 | 0.849 | 0.81 | 0.872 | 0.677 | 0.684 | 0.836 | 0.813 | 0.59 | 0.326 | 0.2 | 0.825 | 0.862 | 0.692 | 0.827 | 0.898
10 | LOU-NH91 | 0.758 | 0.728 | 0.752 | 0.529 | 0.59 | 0.703 | 0.653 | 0.737 | 0.45 | 0.486 | 0.946 | 0.804 | 0.902 | 0.87 | 1.08
11 | NCI-H23 | 0.623 | 0.502 | 0.473 | 0.388 | 0.248 | 0.734 | 0.46 | 0.412 | 0.318 | 0.221 | 0.735 | 0.616 | 0.595 | 0.611 | 0.501
12 | NCI-H1993 | 0.725 | 0.85 | 0.993 | 0.759 | 0.758 | 0.539 | 0.583 | 0.552 | 0.579 | 0.543 | 1.15 | 0.639 | 0.758 | 0.725 | 0.918
13 | HCC-827 | 0.931 | 1 | 1.01 |  | 0.871 | 0.754 | 0.783 | 0.708 |  | 0.649 | 0.87 | 0.871 | 0.739 | 0.864 | 0.771
14 | NCI-H650 | 0.886 | 0.722 | 0.684 | 0.808 | 0.317 | 0.52 | 0.468 | 0.491 | 0.411 | 0.279 | 0.465 | 0.518 | 0.361 | 0.486 | 0.507
15 | CAL-12T | 0.66 | 0.456 | 0.638 | 0.441 | 0.298 | 0.633 | 0.45 | 0.313 | 0.281 | 0.327 | 1 | 0.58 | 0.773 | 0.762 | 1.13
16 | NCI-H838 | 0.807 | 0.855 | 0.989 | 0.911 | 0.718 | 0.403 | 0.491 | 0.455 | 0.341 | 0.304 | 0.776 | 0.697 | 0.75 | 0.706 | 0.794
17 | NCI-H2228 | 0.382 | 0.369 | 0.333 | 0.356 | 0.321 | 0.499 | 0.476 | 0.344 | 0.184 | 0.121 | 0.953 | 0.809 | 0.633 | 0.552 | 0.737
18 | RERF-LC-KJ | 0.867 | 0.818 | 0.93 | 0.852 | 0.632 | 0.548 | 0.52 | 0.423 | 0.349 | 0.381 | 0.829 | 0.729 | 0.726 | 0.653 | 0.696
19 | NCI-H661 | 0.931 | 0.747 | 1.04 | 0.906 | 0.716 | 0.742 | 0.394 | 0.44 | 0.333 | 0.291 | 0.796 | 0.764 | 0.865 | 0.732 | 0.778
